{
  "source": "paper PMC8881610",
  "about": "(Nature Communications, 2022)",
  "assay_in_all_cases": "Whole-cell binding assay, competition with 125I-GIP1-42",
  "set-up_in_all_cases": "acylated tirzepatide to the full-length or modified; Flag; expressed in transfected cells",
  "key": {"GIPR [1]": {"biological_target": "T1, GIPR (Homo sapiens, UniProt P48546, R196A)", "T1 sequence (P48546 22-466 R196A)": "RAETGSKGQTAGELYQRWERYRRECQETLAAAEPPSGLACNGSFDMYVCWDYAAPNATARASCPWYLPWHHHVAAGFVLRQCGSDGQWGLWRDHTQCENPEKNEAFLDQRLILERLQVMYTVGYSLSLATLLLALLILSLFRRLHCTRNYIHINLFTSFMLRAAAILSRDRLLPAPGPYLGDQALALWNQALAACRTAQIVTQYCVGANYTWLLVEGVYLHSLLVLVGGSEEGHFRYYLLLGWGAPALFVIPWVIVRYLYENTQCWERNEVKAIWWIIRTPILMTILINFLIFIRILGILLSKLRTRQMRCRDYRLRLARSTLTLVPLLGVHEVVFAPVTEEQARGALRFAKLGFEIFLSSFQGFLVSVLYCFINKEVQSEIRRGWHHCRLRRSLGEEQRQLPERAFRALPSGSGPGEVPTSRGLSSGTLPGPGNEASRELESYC", "conditions": "GIPR R196A, CHO-K1", "summary_of_the_method": "(§1)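 Transiently transfected CHO-K1 cells expressing WT or mutant GIPR were washed in F-12 with 0.1% BSA or 0.1% casein and 33 mM HEPES, then incubated 2 h at 37 °C. After ice-cold PBS washes, cells were lysed and bound radioactivity counted (CPM).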"}, "GIPR [2]": {"biological_target": "T2, GIPR (Homo sapiens, UniProt P48546, D191A/Q138A/R196A)", "T2 sequence (P48546 22-466 Q138A/D191A/R196A)": "T1 sequence (P48546 22-466 R196A) with Q117A, D170A", "conditions": "GIPR Q138A/D191A/R196A, CHO-K1", "summary_of_the_method": "as §1"}, "GIPR [3]": {"biological_target": "T3, GIPR (Homo sapiens, UniProt P48546, R192A)", "T3 sequence (P48546 22-466 R192A)": "T1 sequence (P48546 22-466 R196A) with R171A, A175R", "conditions": "GIPR R192A, CHO-K1", "summary_of_the_method": "as §1"}, "[4]": {"conditions": "read-out: binding pIC50 (converted)"}},
  "note": "Changes are numbered by the printed parent chain.",
  "data": [
    {"smiles": "CCCCCCCCCCCCCCCC(=O)N[C@@H](CCC(=O)NCCCC[C@H](NC(=O)[C@H](CC(=O)O)NC(=O)[C@H](CO)NC(=O)[C@@H](NC(=O)[C@H](Cc1ccccc1)NC(=O)[C@@H](NC(=O)CNC(=O)[C@H](CCC(N)=O)NC(=O)C(C)(C)NC(=O)[C@@H](N)Cc1c[nH]cn1)[C@@H](C)O)[C@@H](C)O)C(=O)N[C@@H](CO)C(=O)N[C@@H](CCCCN)C(=O)N[C@@H](Cc1ccc(O)cc1)C(=O)N[C@@H](CC(C)C)C(=O)N[C@@H](CC(=O)O)C(=O)N[C@@H](CCC(=O)O)C(=O)N[C@@H](CCCNC(=N)N)C(=O)N[C@@H](C)C(=O)N[C@@H](C)C(=O)N[C@@H](CCC(N)=O)C(=O)N[C@@H](CC(=O)O)C(=O)N[C@@H](Cc1ccccc1)C(=O)N[C@H](C(=O)N[C@@H](CCC(N)=O)C(=O)N[C@@H](Cc1c[nH]c2ccccc12)C(=O)N[C@@H](CC(C)C)C(=O)N[C@@H](CC(C)C)C(=O)N[C@@H](CC(=O)O)C(=O)NCC(=O)NCC(=O)N1CCC[C@H]1C(=O)N[C@@H](CO)C(=O)N[C@@H](CO)C(=O)NCC(=O)N[C@@H](C)C(=O)N1CCC[C@H]1C(=O)N1CCC[C@H]1C(=O)N1CCC[C@H]1C(=O)N[C@@H](CO)C(N)=O)C(C)C)C(=O)O", "note": "[Peptide 20]", "values": [
      {"measurement": "binding Span", "setting": "GIPR [1]", "result": "71.10 ± 3.42", "unit": "% WT"},
      {"measurement": "IC50", "setting": "GIPR [1]; [4]", "result": 14.5, "unit": "nM"},
      {"measurement": "binding Span", "setting": "GIPR [2]", "result": "1.03 ± 0.94", "unit": "% WT"},
      {"measurement": "IC50", "setting": "GIPR [2]; [4]", "result": 2.4, "unit": "nM"},
      {"measurement": "binding Span", "setting": "GIPR [3]", "result": "71.60 ± 4.11", "unit": "% WT"},
      {"measurement": "IC50", "setting": "GIPR [3]; [4]", "result": 24, "unit": "nM"}
    ]}
  ]
}
